Values quoted from earlier work as cited in PubChem BioAssay AID1259409 (Chemical Carcinogenesis Research Information System (CCRIS), 2018).

System: rodent chemically induced tumor inhibition, incidence and multiplicity
Experiment: CCRIS tumor inhibitor studies
Details: Route [Inhibitor]: ORAL, Promoter: NONE USED

| SMILES | tumour outcome (control, treated, inhibition, significance) (Carcinogen: 1,2-DIMETHYLHYDRAZINE DIHYDROCHLORIDE, 306-37-6, Dose [Inhibitor]: 900 MG/L IN DRINKING WATER BEGINNING 7 D POST CARCINOGEN DOSE AND CONTINUING FOR 39 WK (STUDY DURATION: 39 WK), Species: RAT, Strain/Sex: F344/MALE, Target Tissue: Type of Lesion: GASTROINTESTINAL TRACT: TUMOR, Dose [Carcinogen]: 200 MG/KG ONCE) | tumour outcome (control, treated, inhibition, significance) (Carcinogen: 1,2-DIMETHYLHYDRAZINE DIHYDROCHLORIDE, 306-37-6, Dose [Inhibitor]: 1800 MG/L IN DRINKING WATER BEGINNING 7 D POST CARCINOGEN DOSE AND CONTINUING FOR 39 WK (STUDY DURATION: 39 WK), Species: RAT, Strain/Sex: F344/MALE, Target Tissue: Type of Lesion: GASTROINTESTINAL TRACT: TUMOR, Dose [Carcinogen]: 200 MG/KG ONCE) | tumour outcome (control, treated, inhibition, significance) (Carcinogen: ETHYLNITROSOUREA, 759-73-9, Dose [Inhibitor]: 0, 1800 PPM IN DRINKING WATER BEGINNING AT 5 WK OF AGE AND CONTINUING TO 51 WK OF AGE (STUDY DURATION: 52 WK), Species: MOUSE, Strain/Sex: CD-1/FEMALE, Target Tissue: Type of Lesion: LUNG: ADENOMA, Dose [Carcinogen]: 5 MG/KG ONCE AT 15 D OF AGE) | tumour outcome (control, treated, inhibition, significance) (Carcinogen: ETHYLNITROSOUREA, 759-73-9, Dose [Inhibitor]: 0, 1800 PPM IN DRINKING WATER BEGINNING AT 5 WK OF AGE AND CONTINUING TO 51 WK OF AGE (STUDY DURATION: 52 WK), Species: MOUSE, Strain/Sex: CD-1/FEMALE, Target Tissue: Type of Lesion: LUNG: ADENOMA, Dose [Carcinogen]: 20 MG/KG ONCE AT 15 D OF AGE) | tumour outcome (control, treated, inhibition, significance) (Carcinogen: ETHYLNITROSOUREA, 759-73-9, Dose [Inhibitor]: 0, 1800 PPM IN DRINKING WATER BEGINNING AT 5 WK OF AGE AND CONTINUING TO 51 WK OF AGE (STUDY DURATION: 52 WK), Species: MOUSE, Strain/Sex: CD-1/FEMALE, Target Tissue: Type of Lesion: LUNG: CARCINOMA, Dose [Carcinogen]: 5 MG/KG ONCE AT 15 D OF AGE) | tumour outcome (control, treated, inhibition, significance) (Carcinogen: ETHYLNITROSOUREA, 759-73-9, Dose [Inhibitor]: 0, 1800 PPM IN DRINKING WATER BEGINNING AT 5 WK OF AGE AND CONTINUING TO 51 WK OF AGE (STUDY DURATION: 52 WK), Species: MOUSE, Strain/Sex: CD-1/FEMALE, Target Tissue: Type of Lesion: LUNG: CARCINOMA, Dose [Carcinogen]: 20 MG/KG ONCE AT 15 D OF AGE) | tumour outcome (control, treated, inhibition, significance) (Carcinogen: ETHYLNITROSOUREA, 759-73-9, Dose [Inhibitor]: 0, 1800 PPM IN DRINKING WATER BEGINNING AT 5 WK OF AGE AND CONTINUING TO 51 WK OF AGE (STUDY DURATION: 52 WK), Species: MOUSE, Strain/Sex: CD-1/MALE, Target Tissue: Type of Lesion: LIVER: ADENOMA, Dose [Carcinogen]: 5 MG/KG ONCE AT 15 D OF AGE) | tumour outcome (control, treated, inhibition, significance) (Carcinogen: ETHYLNITROSOUREA, 759-73-9, Dose [Inhibitor]: 0, 1800 PPM IN DRINKING WATER BEGINNING AT 5 WK OF AGE AND CONTINUING TO 51 WK OF AGE (STUDY DURATION: 52 WK), Species: MOUSE, Strain/Sex: CD-1/MALE, Target Tissue: Type of Lesion: LIVER: ADENOMA, Dose [Carcinogen]: 20 MG/KG ONCE AT 15 D OF AGE) | tumour outcome (control, treated, inhibition, significance) (Carcinogen: ETHYLNITROSOUREA, 759-73-9, Dose [Inhibitor]: 0, 1800 PPM IN DRINKING WATER BEGINNING AT 5 WK OF AGE AND CONTINUING TO 51 WK OF AGE (STUDY DURATION: 52 WK), Species: MOUSE, Strain/Sex: CD-1/MALE, Target Tissue: Type of Lesion: LIVER: CARCINOMA, Dose [Carcinogen]: 5 MG/KG ONCE AT 15 D OF AGE) | tumour outcome (control, treated, inhibition, significance) (Carcinogen: ETHYLNITROSOUREA, 759-73-9, Dose [Inhibitor]: 0, 1800 PPM IN DRINKING WATER BEGINNING AT 5 WK OF AGE AND CONTINUING TO 51 WK OF AGE (STUDY DURATION: 52 WK), Species: MOUSE, Strain/Sex: CD-1/MALE, Target Tissue: Type of Lesion: LIVER: CARCINOMA, Dose [Carcinogen]: 20 MG/KG ONCE AT 15 D OF AGE) | tumour outcome (control, treated, inhibition, significance) (Carcinogen: ETHYLNITROSOUREA, 759-73-9, Dose [Inhibitor]: 0, 1800 PPM IN DRINKING WATER BEGINNING AT 5 WK OF AGE AND CONTINUING TO 51 WK OF AGE (STUDY DURATION: 52 WK), Species: MOUSE, Strain/Sex: CD-1/MALE, Target Tissue: Type of Lesion: LUNG: ADENOMA, Dose [Carcinogen]: 5 MG/KG ONCE AT 15 D OF AGE) | tumour outcome (control, treated, inhibition, significance) (Carcinogen: ETHYLNITROSOUREA, 759-73-9, Dose [Inhibitor]: 0, 1800 PPM IN DRINKING WATER BEGINNING AT 5 WK OF AGE AND CONTINUING TO 51 WK OF AGE (STUDY DURATION: 52 WK), Species: MOUSE, Strain/Sex: CD-1/MALE, Target Tissue: Type of Lesion: LUNG: ADENOMA, Dose [Carcinogen]: 20 MG/KG ONCE AT 15 D OF AGE) | tumour outcome (control, treated, inhibition, significance) (Carcinogen: ETHYLNITROSOUREA, 759-73-9, Dose [Inhibitor]: 0, 1800 PPM IN DRINKING WATER BEGINNING AT 5 WK OF AGE AND CONTINUING TO 51 WK OF AGE (STUDY DURATION: 52 WK), Species: MOUSE, Strain/Sex: CD-1/MALE, Target Tissue: Type of Lesion: LUNG: CARCINOMA, Dose [Carcinogen]: 5 MG/KG ONCE AT 15 D OF AGE) | tumour outcome (control, treated, inhibition, significance) (Carcinogen: ETHYLNITROSOUREA, 759-73-9, Dose [Inhibitor]: 0, 1800 PPM IN DRINKING WATER BEGINNING AT 5 WK OF AGE AND CONTINUING TO 51 WK OF AGE (STUDY DURATION: 52 WK), Species: MOUSE, Strain/Sex: CD-1/MALE, Target Tissue: Type of Lesion: LUNG: CARCINOMA, Dose [Carcinogen]: 20 MG/KG ONCE AT 15 D OF AGE) | tumour outcome (control, treated, inhibition, significance) (Carcinogen: AZOXYMETHANE, 25843-45-2, Dose [Inhibitor]: 0, 50 PPM IN HIGH-FAT DIET BEGINNING 2 WK PRIOR TO CARCINOGEN AND CONTINUING UNTIL 2 WK POST CARCINOGEN (STUDY DURATION:, Species: RAT, Strain/Sex: F344/FEMALE, Target Tissue: Type of Lesion: COLON: ADENOMA, ADENOCARCINOMA, Dose [Carcinogen]: 15 MG/KG IN NORMAL SALINE 1/WK FOR 3 WK) | tumour outcome (control, treated, inhibition, significance) (Carcinogen: AZOXYMETHANE, 25843-45-2, Dose [Inhibitor]: 0, 50 PPM IN HIGH-FAT DIET BEGINNING 2 WK PRIOR TO CARCINOGEN AND CONTINUING UNTIL 2 WK POST CARCINOGEN (STUDY DURATION:, Species: RAT, Strain/Sex: F344/FEMALE, Target Tissue: Type of Lesion: KIDNEY: ADENOMA, ADENOCARCINOMA, NEPHROBLASTOMA, Dose [Carcinogen]: 15 MG/KG IN NORMAL SALINE 1/WK FOR 3 WK) | tumour outcome (control, treated, inhibition, significance) (Carcinogen: AZOXYMETHANE, 25843-45-2, Dose [Inhibitor]: 0, 50 PPM IN HIGH-FAT DIET BEGINNING 2 WK PRIOR TO CARCINOGEN AND CONTINUING UNTIL 2 WK POST CARCINOGEN (STUDY DURATION:, Species: RAT, Strain/Sex: F344/FEMALE, Target Tissue: Type of Lesion: SMALL INTESTINE: ADENOMA, ADENOCARCINOMA, Dose [Carcinogen]: 15 MG/KG IN NORMAL SALINE 1/WK FOR 3 WK) |
| --- | --- | --- | --- | --- | --- | --- | --- | --- | --- | --- | --- | --- | --- | --- | --- | --- | --- |
| ClC(Cl)Cl | 14/39 (36%), 5/39 (13%), 64%, not calculated | 14/39 (36%), 5/40 (13%), 64%, not calculated | 10/36 (28%), 7/38 (18%), 36%, not calculated | 25/39 (64%), 23/45 (51%), 20%, not calculated | 1/36 (3%), 2/38 (5%), -67%, not calculated | 2/39 (5%), 5/45 (11%), -120%, not calculated | 8/39 (21%), 1/25 (4%), 81%, p<0.05 | 22/30 (73%), 12/29 (41%), 44%, p<0.05 | 2/39 (5%), 0/25 (0%), 100%, not calculated | 10/30 (33%), 5/29 (17%), 48%, p<0.1 | 11/39 (29%), 10/25 (40%), -38%, not calculated | 15/30 (50%), 12/29 (41%), 18%, not calculated | 1/39 (3%), 1/25 (4%), -33%, not calculated | 2/30 (7%), 4/29 (14%), -100%, not calculated |  |  |  |
| COc1ccc([Se])cc1 |  |  |  |  |  |  |  |  |  |  |  |  |  |  | 27/29 (93%), 15/31 (48%), 48%, p<0.05 | 15/29 (52%), 8/31 (26%), 50%, p<.05 | 3/29 (10%), 5/31 (16%), -60%, not significant |
